For assay [1], the system named is reduced folate transport system and the mFBP. The following applies: CCRF-CEM and MA104 cell lines for DDATHF (Pizzorno et al.); cited from earlier work.
Assay [2] has as its target T1, catalytic domain of the human GARFT (Homo sapiens, UniProt P22102).
T1 construct: catalytic domain of the human GARFT
T1 sequence (P22102 810-1010 limits assumed): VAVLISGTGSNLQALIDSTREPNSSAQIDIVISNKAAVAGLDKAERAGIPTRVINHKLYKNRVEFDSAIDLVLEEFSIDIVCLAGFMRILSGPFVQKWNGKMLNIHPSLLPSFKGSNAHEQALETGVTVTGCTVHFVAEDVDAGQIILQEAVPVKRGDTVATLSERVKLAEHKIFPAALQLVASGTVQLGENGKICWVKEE
As to the kind of experiment: GAR transformylase (GARFT) inhibition constant determination. The format is biochemical. The following applies: 20° C., pH 7.5, competitive with respect to FDDF.

The target of assay [3] is T2, human folate-binding protein (FBP) (Homo sapiens, UniProt P15328).
T2 construct: membrane associated FBP prepared from cultured KB cells; endogenous in cells; host or cells: KB cells (membrane fraction)
As to the kind of experiment: FBP competitive binding assay (3H-folic acid, KB cell membranes). The following applies: for Kd: 25° C., pH 7.4, 3H-folic acid competition. Here is the method: Determination of Dissociation Constants for Human Folate Binding Protein:
The dissociation constant (Kd) for human folate-binding protein (FBP) was determined in a competitive binding assay using membrane associated FBP prepared from cultured KB cells.
Preparation of KB cell Membrane Fraction:
Adherent KB cells were scraped from flasks, washed once in ice-cold PBS, and centrifuged at 5000×g for 5 minutes at 4° C. Pelleted cells (2×10^8 cells) were resuspended in 10 ml of suspension buffer (KH2 PO4 -KOH pH 7.4:10 mM EDTA:10 mM 2-mercaptoethanol),sonicated briefly to complete cell lysis and centrifuged at 12000×g for 10 minutes at 4° C. The pellet was stripped of endogenous bound folate by resuspension in 20 ml of acidic buffer (50 mM KH2 PO4 -KOH pH 3.5:10 mM EDTA:10 mM 2-mercaptoethanol) and centrifuged as before. The pellet was then resuspended in 20 ml of the suspension buffer at pH 7.4 and centrifuged as before. The pellet was resuspended in 5 ml of suspension buffer at pH 7.4 lacking EDTA. Protein content was quantitated using the Bradford method with BSA as standard. Typical yields for this procedure were 4-5 mg total membrane protein per 2×10^8 cells. This final suspension was used as a source of membrane-associated human FBP.
FBP Competitive Binding Assay:
Inhibitor was allowed to compete against ^3 H-folic acid for binding to FBP. Reactions mixtures contained […] of cell membrane protein containing 3-6 pmoles (3-6 nM) of FBP, 17.25 pmoles ^3 H-folic acid (17.25 nM, 0.5 μCi), various concentrations of competitor, in 1 ml of 50 mM KH2 PO4 -KOH pH 7.4:10 mM 2-mercaptoethanol. Reactions were performed at 25° C. Because of the very slow release of bound ^3 H-folic acid, the competitor was prebound for 30 minutes in the absence of ^3 H-folic acid. ^3 H-Folic acid was then added and the mixtures were allowed to equilibrate for 2.5 hours. […] The amount of bound ^3 H-folic acid was measured by scintillation counting of the nitrocellulose membrane. […]

The test system of a further assay is L1210. As to the kind of experiment: In vitro growth inhibition (MTT), L1210. The following applies: Mus musculus, continuous (72-hour) exposure, mean IC50, read-out: IC50 Cell Culture L1210. The format is cell-based.
For the next assay, the system named is CCRF-CEM. Kind of assay: In vitro growth inhibition (MTT), CCRF-CEM. The following applies: Homo sapiens, title: continuous (72-hour) exposure, incubation 5 days, mean IC50, read-out: IC50 Cell Culture CCRF-CEM. The format is cell-based.
For assay [4] the following is noted: reported in literature (Muggia); cited from earlier work.
Another assay deals with mFBP. The following applies: cited from earlier work.

A word on the Ki: it is a measure of affinity in units of concentration, obtained from inhibition or displacement. Low values mean tighter binding, high ones weaker binding. In general, Kd refers to the constant that tells how readily two partners part at equilibrium. Read a high Kd as weaker binding. Broadly, the IC50 is the concentration at which inhibition is half-maximal.

T2 sequence (P15328 25-257): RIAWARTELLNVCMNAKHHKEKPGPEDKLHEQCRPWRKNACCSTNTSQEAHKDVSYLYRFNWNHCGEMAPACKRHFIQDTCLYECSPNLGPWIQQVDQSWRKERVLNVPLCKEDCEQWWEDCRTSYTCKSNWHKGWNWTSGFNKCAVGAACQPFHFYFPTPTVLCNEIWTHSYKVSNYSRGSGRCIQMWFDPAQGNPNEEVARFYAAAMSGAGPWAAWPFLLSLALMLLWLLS
Description for CCRF-CEM: (§1) All cultures were maintained at 37° C., 5% air-CO2 in a humidified incubator.
In vitro growth inhibition:
(§2) Stock solutions of the inhibitors were prepared in 10 mM sodium bicarbonate in water and stored in 1 ml aliquots at -20° C. for cell culture experiments. Cell-growth inhibition was measured by a modification of the method of Mosmann, J. Immunol.
(§3) Column 1 was filled with the same volume, 135 ml, of fresh medium, without cells, for use as a blank. The plates were then placed in a 37° C., 5% air-CO2 incubator. After 1 to 4 hours, plates were removed from the incubator followed by addition of the test compound at 10×final concentration, 15 ml/well in binary dilutions, to columns 12 to 4. […] Wells containing each concentration of test compound were prepared in quadruplicate on each plate. Fifteen milliliters of media, without test compound, were added to the wells in column 1 of the plates. The cells were then returned to the incubator and remained undisturbed for the full incubation period. On day 3 for L1210 and L1210/CI920 cells or day 5 for CCRF-CEM cells, 50 ml of 0.8 mg/ml MTT (4,5-dimethylthiazol-2-yl)-2,5-diphenyl tetrazolium bromide; Sigma catalog no. […] The concentration of drug required to reduce cell growth by 50% as measured by MTT metabolism was determined by interpolation between the O.D. (minus blank) immediately above and below 50% of control O.D. (minus blank).
Description for L1210: as §1
In vitro growth inhibition:
as §2, §3

With `CN(Cc1cnc2nc(N)nc(N)c2n1)c1ccc(C(=O)N[C@@H](CCC(=O)O)C(=O)O)cc1` [Methotrexate], the transport into cells entry in assay [1] is listed as “transported via the reduced folate transport system”.
The molecule `Cc1cc(C(=O)N[C@@H](CCC(=O)O)C(=O)O)sc1CCC1CNc2nc(N)[nH]c(=O)c2C1` (stereo partly drawn) [Compound 1, N-(5-[2-(2-amino-4(3H)-oxo-5,6,7,8-tetrahydropyrido[2,3-d]pyrimidin 6-yl)ethyl]-4-methylthieno-2-yl)-L-glutamic acid] had a Ki in assay [2] of 1.4 nM. The Kd in assay [3] is 28 nM. Moreover, the “relative folate binding protein Kd, times less potent than 6R-DDATHF” value in assay [3] (relative to 6R-DDATHF) is on record as “about 1400 times”. For the same molecule, the IC50 with L1210 came out at 13.5 nM; in the assay with CCRF-CEM, 6.1 nM.
In assay [3], `Nc1nc2c(c(=O)[nH]1)CC(CCc1ccc(C(=O)N[C@@H](CCC(=O)O)C(=O)O)cc1)CN2` (stereo partly drawn) [DDATHF, 5,10-dideazatetrahydrofolic acid] gave a Kd of 0.02 nM. The values for the IC50 in the assay with L1210 and in the assay with CCRF-CEM were 17.5 nM and 1.5 nM, respectively. In addition, the antitumor activity entry in assay [4] is on record as “reported to show antitumor activity”. The transport into cells result in assay [1] was “transported into cells via both the reduced folate transport system and the mFBP”. The “affinity for the mFBP” value in the assay with mFBP was “high affinity for the mFBP”.

Source of the values: US5646141A, “Compounds useful as antiproliferative agents and GARFT inhibitors” (Agouron Pharmaceuticals, Inc., priority 1995, dated 1997).
